Our source for the IC50 values is patent US12441725B2, “ISO-citrate dehydrogenase (IDH) inhibitor” (ZHEJIANG METON PHARMACEUTICAL CO., LTD, priority 2019, dated 2025).

One test deals with T1, IDH1 R132H (Homo sapiens, UniProt O75874, R132H).
T1 construct: 6xHis
As to the kind of experiment: Biochemical assay for IDH inhibition (NADPH fluorescence), mutant IDH1 R132H. The conditions noted are these: 50 nM IDH1-R132H, 1 hour pre-incubation, in triplet. The essentials: (§1)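 Mutant enzyme (25 nM R132C or 50 nM R132H) was preincubated 1 h at room temperature with compound in pH 7.5 Tris buffer containing 1.33 mM α-KG, and the reaction was then started with NADPH (80 μM solution). NADPH consumption was followed by fluorescence (Ex 340/Em 460 nm) for 15 min. IC50 was derived from background-corrected linear rates relative to vehicle, run in triplicate.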

A further test concerns the target T2, IDH1 R132C (Homo sapiens, UniProt O75874, R132C).
T2 construct: 6xHis
Nature of the test: Biochemical assay for IDH inhibition (NADPH fluorescence), mutant IDH1 R132C. The conditions noted are these: 25 nM IDH1-R132C, 1 hour pre-incubation, in triplet. Put shortly: as §1

The target in test [1] is T3, IDH (endogenous IDH1 R132C) in HT1080 cell (Homo sapiens, UniProt O75874, R132C).
T3 construct: which harbor endogenous heterozygous IDH1 R132C and R132H mutation respectively and accumulate D-2-HG
Nature of the test: Cell-based assay for IDH inhibition (decrease of D-2-HG) in HT1080 cells. As to conditions: human fibrosarcoma cell line HT1080, 16 hours treatment, D-2-HG by LC-MS, in triplet. The essentials:
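HT1080 cells with endogenous IDH1 R132C, grown in DMEM/10% FBS, treated with compound at several concentrations for 16 h. Metabolites extracted in cold 40% methanol/40% acetonitrile and D-2-HG measured by HILIC LC-MS/MS, normalized to glutamate. IC50 from D-2-HG relative to DMSO controls; run in triplicate.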

T1 sequence (O75874 whole entry R132H): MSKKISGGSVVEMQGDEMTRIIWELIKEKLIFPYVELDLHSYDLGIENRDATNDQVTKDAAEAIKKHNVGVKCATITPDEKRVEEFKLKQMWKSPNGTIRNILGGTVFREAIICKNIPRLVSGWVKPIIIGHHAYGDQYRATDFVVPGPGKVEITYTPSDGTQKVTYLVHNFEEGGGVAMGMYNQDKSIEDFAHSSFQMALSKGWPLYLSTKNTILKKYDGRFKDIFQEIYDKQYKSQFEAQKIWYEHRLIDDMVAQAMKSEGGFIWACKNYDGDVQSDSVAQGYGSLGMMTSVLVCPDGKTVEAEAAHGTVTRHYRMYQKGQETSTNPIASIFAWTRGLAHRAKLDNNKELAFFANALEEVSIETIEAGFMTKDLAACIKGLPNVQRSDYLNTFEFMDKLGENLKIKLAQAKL
T3 sequence (O75874 2-414 R132C): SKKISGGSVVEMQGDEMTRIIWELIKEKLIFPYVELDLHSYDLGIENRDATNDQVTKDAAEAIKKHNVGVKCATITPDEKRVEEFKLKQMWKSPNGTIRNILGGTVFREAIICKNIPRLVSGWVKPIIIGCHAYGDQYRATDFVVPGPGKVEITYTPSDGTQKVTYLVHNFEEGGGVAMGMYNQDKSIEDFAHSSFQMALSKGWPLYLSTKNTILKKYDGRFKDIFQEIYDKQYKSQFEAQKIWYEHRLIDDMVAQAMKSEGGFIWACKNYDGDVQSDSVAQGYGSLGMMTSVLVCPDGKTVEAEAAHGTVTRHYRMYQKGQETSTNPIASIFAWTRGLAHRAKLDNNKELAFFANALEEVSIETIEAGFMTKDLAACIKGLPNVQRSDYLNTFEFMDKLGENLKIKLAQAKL
T2 sequence (O75874 whole entry R132C): as the sequence (O75874 whole entry R132H) above, with H132C counted along it

On to `CCN1Cc2c(ccnc2N[C@@H](C)c2cc(F)c(-c3ccnc(CC4CC4)c3)cc2F)C1=O` [Compound 91, (S)-4-((1-(4-(2-(cyclopropylmethyl)pyridin-4-yl)-2,5-difluorophenyl)ethyl)amino)-2-ethyl-2,3-dihydro-1H-pyrrolo[3,4-c]pyridin-1-one], for which the IC50 at IDH1 R132H was 0.1 to 0.5 µM; at IDH1 R132C, 0.5 to 1 µM; in test [1] it was 0.1 to 0.5 µM.
On to `CCN1Cc2c(ccnc2N[C@@H](C)c2cc(F)c(-c3ccnc(-c4ccn(C)c4)c3)cc2F)C1=O` [Compound 92, (S)-4-((1-(2,5-difluoro-4-(2-(1-methyl-1H-pyrrol-3-yl)pyridin-4-yl)phenyl)ethyl)amino)-2-ethyl-2,3-dihydro-1H-pyrrolo[3,4-c]pyridin-1-one], for which the IC50 at IDH1 R132H is more than 1 µM; at IDH1 R132C, more than 1 µM; in test [1] it was 0.1 to 0.5 µM.
Turning to `CCN1Cc2c(ccnc2N[C@@H](C)c2cc(F)c(-c3ccnc(C4COC4)c3)cc2F)C1=O` [Compound 93, (S)-4-((1-(2,5-difluoro-4-(2-(oxetan-3-yl)pyridin-4-yl)phenyl)ethyl)amino)-2-ethyl-2,3-dihydro-1H-pyrrolo[3,4-c]pyridin-1-one], the IC50 (at IDH1 R132H; at IDH1 R132C; in test [1]) was more than 1 µM in each case.
For the molecule `CCN1Cc2c(ccnc2N[C@@H](C)c2cc(F)c(-c3ccnc(C4(O)COC4)c3)cc2F)C1=O` [Compound 94, (S)-4-((1-(2,5-difluoro-4-(2-(3-hydroxyoxetan-3-yl)pyridin-4-yl)phenyl)ethyl)amino)-2-ethyl-2,3-dihydro-1H-pyrrolo[3,4-c]pyridin-1-one], the IC50 (on IDH1 R132H; at IDH1 R132C; in test [1]) was more than 1 µM in each case.
Turning to `CCN1Cc2c(ccnc2N[C@@H](C)c2cc(F)c(-c3ccnc(Cl)c3)cc2F)C1=O` [Compound 95, (S)-4-((1-(4-(2-chloropyridin-4-yl)-2,5-difluorophenyl)ethyl)amino)-2-ethyl-2,3-dihydro-1H-pyrrolo[3,4-c]pyridin-1-one], the IC50 is more than 1 µM on IDH1 R132H, more than 1 µM on IDH1 R132C and 0.5 to 1 µM in test [1].
`CCN1Cc2c(ccnc2N[C@@H](C)c2cc(F)c(-c3ccnc(-c4ccnc(Cl)c4)c3)cc2F)C1=O` [Compound 96, (S)-4-((1-(4-(2′-chloro-[2,4′-bipyridin]-4-yl)-2,5-difluorophenyl)ethyl)amino)-2-ethyl-2,3-dihydro-1H-pyrrolo[3,4-c]pyridin-1-one]: the IC50 at IDH1 R132H lay in the range of 0.1 to 0.5 µM; on IDH1 R132C it was 0.5 to 1 µM; in test [1], 0.1 to 0.5 µM.
`CCN1Cc2c(ccnc2N[C@@H](C)c2cc(F)c(-c3ccnc(C4CC(F)(F)C4)c3)cc2F)C1=O` [Compound 97, (S)-4-((1-(4-(2-(3,3-difluorocyclobutyl)pyridin-4-yl)-2,5-difluorophenyl)ethyl)amino)-2-ethyl-2,3-dihydro-1H-pyrrolo[3,4-c]pyridin-1-one]: the IC50 was in the range of 0.1 to 0.5 µM on IDH1 R132H, 0.5 to 1 µM at IDH1 R132C and 0.1 to 0.5 µM in test [1].
Regarding `CCN1Cc2c(ccnc2N[C@@H](C)c2cc(F)c(-c3ccnc(-c4ccccc4)c3)cc2F)C1=O` [Compound 98, (S)-4-((1-(2,5-difluoro-4-(2-phenylpyridin-4-yl)phenyl)ethyl)amino)-2-ethyl-2,3-dihydro-1H-pyrrolo[3,4-c]pyridin-1-one], the concentration for half-maximal inhibition (IC50) is 0.5 to 1 µM at IDH1 R132H, more than 1 µM on IDH1 R132C and 0.1 to 0.5 µM in test [1].
Take `CCN1Cc2c(ccnc2N[C@@H](C)c2cc(F)c(-c3ccnc(-c4cccnc4)c3)cc2F)C1=O` [Compound 99, (S)-4-((1-(4-([2,3′-bipyridin]-4-yl)-2,5-difluorophenyl)ethyl)amino)-2-ethyl-2,3-dihydro-1H-pyrrolo[3,4-c]pyridin-1-one]: the IC50 at IDH1 R132H is more than 1 µM; at IDH1 R132C it was more than 1 µM; in test [1] it was 0.5 to 1 µM.
Consider `CCN1Cc2c(ccnc2N[C@@H](C)c2cc(F)c(-c3ccnc(-c4cncc(Cl)c4)c3)cc2F)C1=O` [Compound 100, (S)-4-((1-(4-(5′-chloro-[2,3′-bipyridin]-4-yl)-2,5-difluorophenyl)ethyl)amino)-2-ethyl-2,3-dihydro-1H-pyrrolo[3,4-c]pyridin-1-one], for which the values for the IC50 (on IDH1 R132H; on IDH1 R132C; in test [1]) were 0.1 to 0.5 µM, 0.5 to 1 µM and 0.1 to 0.5 µM, respectively.
Regarding `CCN1Cc2c(ccnc2N[C@@H](C)c2cc(F)c(-c3ccnc(C4CCCC4)c3)cc2F)C1=O` [Compound 101, (S)-4-((1-(4-(2-cyclopentylpyridin-4-yl)-2,5-difluorophenyl)ethyl)amino)-2-ethyl-2,3-dihydro-1H-pyrrolo[3,4-c]pyridin-1-one], the values for the IC50 (at IDH1 R132H; on IDH1 R132C; in test [1]) were less than 0.1 µM, 0.1 to 0.5 µM and 0.1 to 0.5 µM, respectively.
As for `CCN1Cc2c(ccnc2N[C@@H](C)c2cc(F)c(-c3ccnc(C(C)(C)F)c3)cc2F)C1=O` [Compound 102, 4-[[(1S)-1-[2,5-difluoro-4-[2-(1-fluoro-1-methyl-ethyl)-4-pyridyl]phenyl]ethyl]amino]-2-ethyl-3H-pyrrolo[3,4-c]pyridin-1-one], the values for the IC50 (on IDH1 R132H; on IDH1 R132C; in test [1]) were less than 0.1 µM, 0.1 to 0.5 µM and 0.1 to 0.5 µM, respectively.
Consider `CCN1Cc2c(ccnc2N[C@@H](C)c2cc(F)c(-c3ccnc(C(C)(C)O)c3)cc2F)C1=O` [Compound 103, (S)-4-((1-(2,5-difluoro-4-(2-(2-hydroxypropan-2-yl)pyridin-4-yl)phenyl)ethyl)amino)-2-ethyl-2,3-dihydro-1H-pyrrolo[3,4-c]pyridin-1-one], for which the IC50 (at IDH1 R132H; on IDH1 R132C; in test [1]) was more than 1 µM each time.
With `CCN1Cc2c(ccnc2N[C@@H](C)c2cc(F)c(-c3cc(C(C)(C)C)ncc3F)cc2F)C1=O` [Compound 104, (S)-4-((1-(4-(2-(tert-butyl)-5-fluoropyridin-4-yl)-2,5-difluorophenyl)ethyl)amino)-2-ethyl-2,3-dihydro-1H-pyrrolo[3,4-c]pyridin-1-one], the IC50 (at IDH1 R132H; on IDH1 R132C; in test [1]) was less than 0.1 µM in each case.
As to `CCN1Cc2c(ccnc2N[C@@H](C)c2cc(F)c(-c3ccnc(C(C)(C)C(F)(F)F)c3)cc2F)C1=O` [Compound 105, (S)-4-((1-(2,5-difluoro-4-(2-(1,1,1-trifluoro-2-methylpropan-2-yl)pyridin-4-yl)phenyl)ethyl)amino)-2-ethyl-2,3-dihydro-1H-pyrrolo[3,4-c]pyridin-1-one], the 50% inhibitory concentration (IC50) (at IDH1 R132H; at IDH1 R132C; in test [1]) was less than 0.1 µM each time.
Consider `CCN1Cc2c(ccnc2N[C@@H](C)c2cc(F)c(-c3ccnc(C(C)(F)F)c3)cc2F)C1=O` [Compound 106, (S)-4-((1-(4-(2-(1,1-difluoroethyl)pyridin-4-yl)-2,5-difluorophenyl)ethyl)amino)-2-ethyl-2,3-dihydro-1H-pyrrolo[3,4-c]pyridin-1-one], for which the IC50 (on IDH1 R132H; at IDH1 R132C; in test [1]) was 0.1 to 0.5 µM throughout.
In the case of `CCN1Cc2c(ccnc2N[C@@H](C)c2cc(F)c(-c3ccnc(C(F)(F)C(F)(F)F)c3)cc2F)C1=O` [Compound 107, (S)-4-((1-(2,5-difluoro-4-(2-(perfluoroethyl)pyridin-4-yl)phenyl)ethyl)amino)-2-ethyl-2,3-dihydro-1H-pyrrolo[3,4-c]pyridin-1-one], the IC50 is less than 0.1 µM on IDH1 R132H, less than 0.1 µM at IDH1 R132C and 0.1 to 0.5 µM in test [1].
As for `CCN1Cc2c(ccnc2N[C@@H](C)c2cc(F)c(-c3cc(C(C)(C)C)ccn3)cc2F)C1=O` [Compound 108, (S)-4-((1-(4-(4-(tert-butyl)pyridin-2-yl)-2,5-difluorophenyl)ethyl)amino)-2-ethyl-2,3-dihydro-1H-pyrrolo[3,4-c]pyridin-1-one], the 50% inhibitory concentration (IC50) (at IDH1 R132H; on IDH1 R132C; in test [1]) was less than 0.1 µM throughout.
As to `CCN1Cc2c(ccnc2N[C@@H](C)c2cc(F)c(-c3cncc(C(C)(C)C)c3)cc2F)C1=O` [Compound 109, (S)-4-((1-(4-(5-(tert-butyl)pyridin-3-yl)-2,5-difluorophenyl)ethyl)amino)-2-ethyl-2,3-dihydro-1H-pyrrolo[3,4-c]pyridin-1-one], the IC50 (at IDH1 R132H; at IDH1 R132C; in test [1]) was less than 0.1 µM in each case.
On to `CCN1Cc2c(ccnc2N[C@@H](C)c2cc(F)c(-c3cc(C(C)(C)C)ncn3)cc2F)C1=O` [Compound 110, (S)-4-((1-(4-(6-(tert-butyl)pyrimidin-4-yl)-2,5-difluorophenyl)ethyl)amino)-2-ethyl-2,3-dihydro-1H-pyrrolo[3,4-c]pyridin-1-one], for which the IC50 (on IDH1 R132H; at IDH1 R132C; in test [1]) was less than 0.1 µM throughout.
Regarding `CCN1Cc2c(ccnc2N[C@@H](C)c2cc(F)c(-c3ccnc(C(C)(C)C)n3)cc2F)C1=O` [Compound 111, (S)-4-((1-(4-(2-(tert-butyl)pyrimidin-4-yl)-2,5-difluorophenyl)ethyl)amino)-2-ethyl-2,3-dihydro-1H-pyrrolo[3,4-c]pyridin-1-one], the IC50 is less than 0.1 µM at IDH1 R132H, 0.1 to 0.5 µM at IDH1 R132C and 0.1 to 0.5 µM in test [1].

The IC50 is the concentration that inhibits the measured activity by half.
